Usually IC50 stands for the point on the concentration scale where inhibition reaches its midpoint.

From article PMC9037614 (RSC Advances, 2021) come the findings set out here.

Holding throughout (experiment): cells
Holding throughout (assay type): cell-based

Test [1] has as its system human non-small-cell lung cancer A549 cells. Particulars: A549, read-out: IC50 against A549.
Test [2] concerns human bronchial epithelial cell line HBE. Particulars: for IC50: Homo sapiens, HBE, read-out: IC50 against HBE.
Test [3] deals with human non-small-cell lung cancer H460 cells. Particulars: NCI-H460, read-out: IC50 against H460.

Consider `COC[C@@]12CC[C@H](OC)[C@]34C(C([C@H](OC)[C@H]13)[C@]1(OC(C)=O)[C@H]3[C@@H](OC(=O)c5ccccc5)[C@](O)(C[C@H]34)[C@@H](OC)[C@@H]1O)N(C)C2` [Compound 33, hypaconitine], for which the IC50 turned out to be 14.3 ± 1.79 µM in test [1], 32.7 ± 4.56 µM in test [2] and 16.5 ± 2.22 µM in test [3].
For `CCN1C[C@]2(C)CC[C@H](O)[C@@]34C5C[C@@H]6[C@@H](OC)C[C@@](O)(C5[C@H]6O)[C@@H](CC23)C14` (stereo partly shown) [Compound 9, karacoline], the results for the IC50 in test [1], in test [2] and in test [3] were 8.28 ± 0.41 µM, 49.7 ± 8.11 µM and 9.69 ± 0.4 µM, respectively. For the same molecule, the “selectivity towards cancerous cell lines over non-cancerous cell line” value in test [2] (A549/H460 versus HBE, from IC50 values) is given as “higher selectivity”.
Turning to `CCN1C[C@]2(COC)CC[C@H](O)[C@@]34C5C[C@@H]6[C@@H](OC)C[C@](O)(C(CC23)C14)C5[C@H]6OC(C)=O` (stereo partly shown) [Compound 30, condelphine], the IC50 amounted to 16.4 ± 2.38 µM in test [1], 31.4 ± 6 µM in test [2] and 16 ± 1.15 µM in test [3].
In the same order, the values of `CCN1C[C@]2(COC)CC[C@H](OC)[C@]34C1C([C@H](OC)[C@H]23)[C@]1(OC(C)=O)[C@H]2[C@@H](OC(=O)c3ccccc3)[C@](O)(C[C@H]24)[C@@H](OC)[C@@H]1O` [Compound 34, deoxyaconitine] are 14.9 ± 4.02 µM, 31 ± 4.8 µM and 14.6 ± 1.32 µM.
Turning to `O=c1[nH]cc(F)c(=O)[nH]1` [Compound 5-FU, 5-fluorouracil, reference compound], the IC50 in test [1] came out at 12.5 ± 8.81 µM; in test [2], 8.93 ± 6.05 µM; in test [3], 6.16 ± 1.8 µM.
In the same order, the values of `C=C1[C@H]2C[C@@]3([C@@H]1O)[C@@H](CC2=O)[C@]12[C@@H]4C[C@H]3[C@H]1N(CC)C[C@]4(C)CC[C@@H]2O` [Compound 5, songorine] are 21.2 ± 0.84 µM, 32.4 ± 2.62 µM and 25.1 ± 0.59 µM.
